Experimental data reported in ChEMBL document CHEMBL3102823, “Tetramic acid analogues produced by coculture of Saccharopolyspora erythraea with Fusarium pallidoroseum” (2014).
The source made the active and inactive calls. The rule behind the calls is not given here.

Assays:
[1] = (§1) Cytotoxicity against human NCI60 cells assessed as growth inhibition by SRB assay; format: functional
Staphylococcus aureus = assay: Antibacterial activity against Staphylococcus aureus by Kirby-Bauer disk diffusion assay; format: functional
[2] = test system: Saccharopolyspora erythraea; assay: Antibacterial activity against Saccharopolyspora erythraea by Kirby-Bauer disk diffusion assay
CCRF-CEM = assay: Cytotoxicity against human CCRF-CEM cells assessed as growth inhibition by SRB assay; format: functional
NCI60 = assay: as §1; format: functional

| Compound | GI50 [1] | %max (Staphylococcus aureus) | Activity [2] | Activity (Staphylococcus aureus) | GI50 (CCRF-CEM) | growth inhibition (GI) (NCI60) | MIC (Staphylococcus aureus) | MIC [2] |
| --- | --- | --- | --- | --- | --- | --- | --- | --- |
| C/C=C/C1C=C[C@@H]2C[C@H](CO)CC[C@H]2[C@]1(C)C(=O)C1=C(O)[C@H](CO)N(C)C1=O (some centres undefined) | > 20 µM | – | – | – | – | – | – | – |
| C/C=C/[C@@H]1C=C[C@@H]2C[C@@](C)(O)CC[C@H]2[C@]1(C)C(=O)C1=C(O)[C@H](CO)N(C)C1=O | > 20 µM | inactive | inactive | – | – | – | – | – |
| CN1C(=O)C(C(=O)[C@@]2(C)[C@@H]3CC[C@@H](CO)C[C@H]3C=C[C@H]2/C=C/CO)=C(O)C1CO (mixture of isomers) | > 20 µM | – | inactive | inactive | – | – | – | – |
| C/C=C/[C@@H]1C=C[C@@H]2C[C@H](C)CC[C@H]2[C@]1(C)/C(O)=C1/C(=O)[C@H](CO)N(C)C1=O | – | – | – | – | 0.144 µM | Active | <1.25 µg | 2.5 µg |
| C/C=C/[C@@H]1C=C[C@@H]2C[C@H](CO)CC[C@H]2[C@]1(C)C(=O)C1=C(O)[C@H](CO)NC1=O | > 20 µM | – | inactive | inactive | – | – | – | – |
